Laboratory results from the supplement of paper PMC13380429.

Tests used:
Settings in all cases: 72 h
HepG2 [1] = assay: cell viability relative to DMSO; higher = less toxic
Calu-3 [2] = assay: as above
Caco-2 [3] = assay: as above
U2OS [4] = assay: as above
Vero E6 [5] = assay: as above
HepG2 [6] = assay: relative viability EC50 (midpoint between 100% and the lowest measured viability); higher = less toxic
Calu-3 [7] = assay: as above
Caco-2 [8] = assay: as above
U2OS [9] = assay: as above
Vero E6 [10] = assay: as above
HepG2 [11] = assay: drug sensitivity score (DSS) for viability; higher = more toxic; extreme values may be limits of the assay
Calu-3 [12] = assay: as above
Caco-2 [13] = assay: as above
U2OS [14] = assay: as above
Vero E6 [15] = assay: as above

SMILES | cell viability (HepG2 [1]; 1 nM) [%] | cell viability (HepG2 [1]; 10 nM) [%] | cell viability (HepG2 [1]; 100 nM) [%] | cell viability (HepG2 [1]; 1000 nM) [%] | cell viability (HepG2 [1]; 10000 nM) [%] | cell viability (Calu-3 [2]; 1 nM) [%] | cell viability (Calu-3 [2]; 10 nM) [%] | cell viability (Calu-3 [2]; 100 nM) [%] | cell viability (Calu-3 [2]; 1000 nM) [%] | cell viability (Calu-3 [2]; 10000 nM) [%] | cell viability (Caco-2 [3]; 1 nM) [%] | cell viability (Caco-2 [3]; 10 nM) [%] | cell viability (Caco-2 [3]; 100 nM) [%] | cell viability (Caco-2 [3]; 1000 nM) [%] | cell viability (Caco-2 [3]; 10000 nM) [%] | cell viability (U2OS [4]; 1 nM) [%] | cell viability (U2OS [4]; 10 nM) [%] | cell viability (U2OS [4]; 100 nM) [%] | cell viability (U2OS [4]; 1000 nM) [%] | cell viability (U2OS [4]; 10000 nM) [%] | cell viability (Vero E6 [5]; 1 nM) [%] | cell viability (Vero E6 [5]; 10 nM) [%] | cell viability (Vero E6 [5]; 100 nM) [%] | cell viability (Vero E6 [5]; 1000 nM) [%] | cell viability (Vero E6 [5]; 10000 nM) [%] | relative viability EC50 (HepG2 [6]) [µM] | relative viability EC50 (Calu-3 [7]) [µM] | relative viability EC50 (Caco-2 [8]) [µM] | relative viability EC50 (U2OS [9]) [µM] | relative viability EC50 (Vero E6 [10]) [µM] | drug sensitivity score (HepG2 [11]) | drug sensitivity score (Calu-3 [12]) | drug sensitivity score (Caco-2 [13]) | drug sensitivity score (U2OS [14]) | drug sensitivity score (Vero E6 [15])
Cc1oc2nc3c(c(NC(=O)CN4CCCC4=O)c2c1C)CCCC3 [BCI-540] | 88.7 | 100 | 98.5 | 98 | 94.3 | 90.2 | 101 | 94.4 | 104 | 107 | 94.4 | 99.2 | 99.8 | 103 | 101 | 100 | 99.8 | 97.8 | 105 | 101 | 93.2 | 93.8 | 99.5 | 92.5 | 110 | > 10 | > 10 | > 10 | > 10 | > 10 | 0 | 0 | 0 | 0 | 0
CC(C)(C)c1cc(O)c(C(C)(C)C)cc1O [BHQ] | 102 | 95.8 | 92.4 | 97.9 | 95.5 | 109 | 94 | 93.1 | 97.9 | 108 | 101 | 96.9 | 102 | 95.7 | 88.9 | 101 | 97.2 | 103 | 99.1 | 99.8 | 98.3 | 96 | 103 | 96.6 | 91.8 | > 10 | > 10 | > 10 | > 10 | > 10 | 0 | 0 | 0.1 | 0 | 0
Cc1cc(C(=CNc2ccc(Cl)cc2)C(=O)Nc2ccc(Cl)cc2)on1 [CCMI] | 95.6 | 96.3 | 96.9 | 107 | 95.7 | 104 | 100 | 105 | 98.9 | 105 | 98.4 | 93 | 104 | 88 | 100 | 103 | 93.3 | 97.8 | 102 | 99.4 | 98.7 | 101 | 98.7 | 96.6 | 98.1 | > 10 | > 10 | > 10 | > 10 | > 10 | 0 | 0 | 0 | 0 | 0
